Results as given in patent publication US12679839B2, “Cyclin-dependent kinase 7 (CDK7) non-covalent inhibitors” (JANSSEN PHARMACEUTICA NV, priority 2020, dated 2026).

Molecular target: T1, CDK7/Cyclin H/MAT-1 complex (Homo sapiens, UniProt P50613)
T1 construct: Human CDK7 (amino acids 1-346); His6 (N); TEV protease cleavage site (N); made in house; host or cells: baculovirus-SF9 insect cells
Assay: Absorbance kinetic assay (20 nM CDK7/Cyclin H/MAT-1 complex)
Type: biochemical
Conditions: for IC50: read-out: CDK7 (20 nM) pIC50 (converted)
In short: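 Trimeric complex (His6-TEV CDK7 1-346, MAT1 1-309, cyclin H 1-323) from Sf9 cells, at 20 nM, phosphorylating RNA Pol II-derived CDK7/9-tide; ADP coupled via PK/LDH to NADH depletion read at 340 nm every 2 min for 8 h. Steady-state slopes gave % inhibition; IC50 from 11-point Hill fit.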

T1 sequence (P50613 whole entry, the tested form may be a part): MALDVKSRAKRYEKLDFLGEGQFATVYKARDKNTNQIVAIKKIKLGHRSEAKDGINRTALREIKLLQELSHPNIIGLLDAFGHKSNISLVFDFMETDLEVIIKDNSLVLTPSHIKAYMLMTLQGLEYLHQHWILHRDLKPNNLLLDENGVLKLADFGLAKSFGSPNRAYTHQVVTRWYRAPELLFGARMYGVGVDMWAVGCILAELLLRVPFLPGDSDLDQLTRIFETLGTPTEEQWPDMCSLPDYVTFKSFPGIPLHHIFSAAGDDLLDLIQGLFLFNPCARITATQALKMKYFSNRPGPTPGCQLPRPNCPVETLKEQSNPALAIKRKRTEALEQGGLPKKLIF
T1 sequence (P51946 whole entry partner, the tested form may be a part): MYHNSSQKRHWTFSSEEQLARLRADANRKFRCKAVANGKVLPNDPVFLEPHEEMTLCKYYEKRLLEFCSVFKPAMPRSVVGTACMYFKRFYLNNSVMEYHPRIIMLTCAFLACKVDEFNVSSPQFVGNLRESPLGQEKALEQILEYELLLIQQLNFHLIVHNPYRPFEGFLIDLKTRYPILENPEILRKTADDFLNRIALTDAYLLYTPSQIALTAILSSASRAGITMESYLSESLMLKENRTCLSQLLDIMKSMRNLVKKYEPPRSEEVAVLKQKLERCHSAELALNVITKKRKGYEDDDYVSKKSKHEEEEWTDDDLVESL
T1 sequence (P51948 whole entry partner, the tested form may be a part): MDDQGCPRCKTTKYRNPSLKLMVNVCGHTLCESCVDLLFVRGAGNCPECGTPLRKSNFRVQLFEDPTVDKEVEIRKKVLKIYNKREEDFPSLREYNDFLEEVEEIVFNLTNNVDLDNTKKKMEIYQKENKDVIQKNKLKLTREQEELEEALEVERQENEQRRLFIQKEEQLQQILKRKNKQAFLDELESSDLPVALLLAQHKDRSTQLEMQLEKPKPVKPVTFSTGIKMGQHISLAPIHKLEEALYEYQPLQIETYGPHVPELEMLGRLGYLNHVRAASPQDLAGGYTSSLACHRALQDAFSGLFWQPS

| SMILES | CDK7 (20 nM) pIC50 | IC50 [nM] |
| --- | --- | --- |
| C[C@@H]1Cc2cnc(N[C@H](CO)c3ccccc3)nc2CN1C(=O)[C@H]1CCN(C)C[C@@H]1c1ccccc1 [Compound 72] | 8.01 | – |
| C[C@@H]1Cc2cnc(Nc3cnn(CC(C)(C)O)c3)nc2CN1C(=O)[C@H]1CCN(C)C[C@@H]1c1ccccc1 [Compound 74] | 7.72 | – |
| C[C@@H]1Cc2cnc(Nc3ccnc(C(F)F)c3)nc2CN1C(=O)[C@H]1CCN(C)C[C@@H]1c1ccccc1 [Compound 75] | 7.46 | – |
| C[C@@H]1Cc2cnc(Nc3cnn4c3CCCC4)nc2CN1C(=O)[C@H]1CCN(C)C[C@@H]1c1ccccc1 [Compound 77] | 7.53 | – |
| Cc1cc(Nc2ncc3c(n2)CN(C(=O)[C@H]2CCN(C)C[C@@H]2c2ccccc2)[C@H](C)C3)ccn1 [Compound 78] | 7.93 | – |
| C[C@@H]1Cc2cnc(Nc3ccnn3C)nc2CN1C(=O)[C@H]1CCN(C)C[C@@H]1c1ccccc1 [Compound 79] | 7.37 | – |
| C[C@@H]1Cc2cnc(Nc3cnn(C)c3)nc2CN1C(=O)[C@H]1CCN(C)C[C@@H]1c1ccccc1 [Compound 82] | >8.01 | – |
| CC(C)n1cc(Nc2ncc3c(n2)CN(C(=O)[C@H]2CCN(C)C[C@@H]2c2ccccc2)[C@H](C)C3)cn1 [Compound 89] | 6.1 | – |
| C[C@@H]1Cc2cnc(NC(C)(C)c3cnn(C)c3)nc2CN1C(=O)[C@H]1CCN(C)C[C@@H]1c1ccccc1 [Compound 90] | 7.43 | – |
| Cc1cccc([C@H]2CN(C)CC[C@@H]2C(=O)N2Cc3nc(NC4CCOCC4)ncc3C[C@H]2C)c1 [Compound 93] | >8.01 | – |
| C[C@@H]1Cc2cnc(NC3CCOCC3)nc2CN1C(=O)[C@H]1CCN(C)C[C@@H]1c1ccc(Cl)c(F)c1 [Compound 122b] | 7.15 | – |
| Cc1cccc([C@H]2CN(C(C)C)CC[C@@H]2C(=O)N2Cc3nc(NC4CCOCC4)ncc3C[C@H]2C)c1 [Compound 166] | 7.74 | – |
| CO[C@H]1CC[C@H](Nc2cc3c(cn2)C[C@H](C)N(C(=O)[C@@H]2CCN(C)C[C@H]2c2cccc(C)c2)C3)CC1 [Compound 177a] | – | 28.8 |
| CO[C@H]1CC[C@H](Nc2cc3c(cn2)C[C@H](C)N(C(=O)[C@H]2CCN(C)C[C@@H]2c2cccc(C)c2)C3)CC1 [Compound 177c] | – | 389 |
| C[C@@H]1c2nc(NC3CCOCC3)ncc2[C@@H](C)CN1C(=O)[C@H]1CCN(C)C[C@@H]1c1ccccc1 [Compound 180a] | >8.01 | – |
| CO[C@H]1CC[C@H](Nc2ncc3c(n2)CN(C(=O)[C@H]2CCN(C)C[C@@H]2c2ccccc2)C2(CC2)C3)CC1 [Compound 192] | 6.80 | – |
| CN1CC[C@H](C(=O)N2Cc3nc(NC4CCOCC4)ncc3C(C)(C)C2)[C@@H](c2ccccc2)C1 [Compound 193] | 6.75 | – |
| CN1CC[C@H](C(=O)N2Cc3nc(NC4CCOCC4)ncc3[C@@H]3C[C@@H]32)[C@@H](c2ccccc2)C1 [Compound 199] | >8.01 | – |
| CN1CC[C@H](C(=O)N2Cc3nc(Nc4cnn(C)c4)ncc3[C@@H]3C[C@@H]32)[C@@H](c2ccccc2)C1 [Compound 200] | 7.46 | – |
| CO[C@H]1CC[C@H](Nc2ncc3c(n2)CN(C(=O)[C@H]2CCN(C)C[C@@H]2c2ccccc2)[C@H]2C[C@@H]32)CC1 [Compound 201] | 7.48 | – |
| C[C@@H]1Cc2cnc(NC3CCOCC3)nc2CN1C(=O)N1CCN(C)C[C@@H]1c1ccccc1 [Compound 204a] | 7.81 | – |
| CC(C)N1CCN(C(=O)N2Cc3nc(NC4CCOCC4)ncc3C[C@H]2C)[C@@H](c2ccccc2)C1 [Compound 206] | 7.79 | – |
| C[C@@H]1Cc2cnc(NC3CCN(S(C)(=O)=O)CC3)nc2CN1C(=O)N1CCN(C)C[C@@H]1c1ccccc1 [Compound 209] | 7.77 | – |
| C[C@@H]1Cc2cnc(NC3CCN(S(=O)(=O)C4CC4)CC3)nc2CN1C(=O)N1CCN(C)C[C@@H]1c1ccccc1 [Compound 210] | >7.7 | – |
| C[C@@H]1Cc2cnc(NC3CCN(S(=O)(=O)N(C)C)CC3)nc2CN1C(=O)N1CCN(C)C[C@@H]1c1ccccc1 [Compound 211] | >7.7 | – |
| C[C@@H]1Cc2cnc(NCc3ccn(C)n3)nc2CN1C(=O)N1CCN(C)C[C@@H]1c1ccccc1 [Compound 213] | 6.8 | – |
| C[C@@H]1Cc2cnc(NC3CCS(=O)(=O)CC3)nc2CN1C(=O)N1CCN(C)C[C@@H]1c1ccccc1 [Compound 214] | 7.55 | – |
